Results on three compounds are retold here after patent US8114410B2, “Composition and methods for the inhibition of membrane fusion by paramyxoviruses” (priority 2001, dated 2012).

In experiment [1] the test system is HeV-mediated fusion (HeLa cells expressing HeV F and G, U373 target cells).
Experiment [2] has as its system NiV-mediated fusion (HeLa cells expressing NiV F and G, U373 target cells).
The test system of the next experiment is live NiV. The following applies: 56 μM.

For the compound `CC[C@H](C)[C@H](NC(=O)[C@H](CCCCN)NC(=O)[C@H](CCC(N)=O)NC(=O)[C@H](C)NC(=O)[C@H](CCC(=O)O)NC(=O)[C@H](CCCCN)NC(=O)[C@@H](NC(=O)[C@H](Cc1ccc(O)cc1)NC(=O)[C@H](CC(=O)O)NC(=O)[C@H](CCCCN)NC(=O)[C@H](CO)NC(=O)[C@H](CCC(N)=O)NC(=O)[C@H](CCC(N)=O)NC(=O)[C@H](CC(C)C)NC(=O)[C@H](CO)NC(=O)[C@H](CCC(N)=O)NC(=O)[C@H](CC(N)=O)NC(=O)[C@H](CCSC)NC(=O)[C@H](CO)NC(=O)[C@H](CO)NC(=O)[C@@H](NC(=O)[C@H](CCC(N)=O)NC(=O)[C@H](CO)NC(=O)[C@H](CO)NC(=O)[C@@H](NC(=O)[C@H](CC(=O)O)NC(=O)[C@@H](NC(=O)[C@H](CCCCN)NC(=O)[C@H](CC(=O)O)NC(=O)[C@@H](NC(=O)[C@H](Cc1ccc(O)cc1)NC(=O)[C@@H](NC(=O)[C@@H]1CCCN1C(=O)[C@@H]1CCCN1)C(C)C)[C@@H](C)O)C(C)C)[C@@H](C)CC)[C@@H](C)CC)[C@@H](C)CC)C(=O)N[C@@H](CC(C)C)C(=O)N[C@@H](CC(=O)O)C(=O)N[C@H](C(=O)N[C@H](C(=O)N[C@@H](CC(N)=O)C(=O)N1CCC[C@H]1C(=O)N[C@@H](CO)C(=O)N[C@@H](CC(C)C)C(=O)O)C(C)C)[C@@H](C)O` [FC1], the “Inhibition of HeV-mediated fusion (in words)” value in experiment [1] is “completely inhibit HeV-mediated fusion in the nM range”. For the same compound, the “Inhibition of NiV-mediated fusion (in words)” value in experiment [2] is recorded as “capable of inhibiting recombinant NiV-mediated fusion at slightly lower efficiencies”. Further, the “% Inhibition of focus formation” value in the experiment on live NiV is listed as 91.8%.

For the compound “KPYTQSDVSMISLQSQKSINSLPSQIKDYVQKTVILAEDNP [ScHeV FC2, reference compound]”, the “Inhibition of HeV-mediated fusion (in words)” value in experiment [1] was “no inhibitory effect”. Moreover, in experiment [2], the “Inhibition of NiV-mediated fusion (in words)” value is listed as “no inhibitory effect”.

Consider `CC[C@H](C)[C@H](NC(=O)[C@H](CCCCN)NC(=O)[C@H](CCC(N)=O)NC(=O)[C@H](C)NC(=O)[C@H](CCC(=O)O)NC(=O)[C@H](CCCCN)NC(=O)[C@@H](NC(=O)[C@H](Cc1ccc(O)cc1)NC(=O)[C@H](CC(=O)O)NC(=O)[C@H](CCCCN)NC(=O)[C@H](CO)NC(=O)[C@H](CCC(N)=O)NC(=O)[C@H](CCC(N)=O)NC(=O)[C@H](CC(C)C)NC(=O)[C@H](CO)NC(=O)[C@H](CCC(N)=O)NC(=O)[C@H](CC(N)=O)NC(=O)[C@H](CCSC)NC(=O)[C@H](CO)NC(=O)[C@H](CO)NC(=O)[C@@H](NC(=O)[C@H](CCC(N)=O)NC(=O)[C@H](CO)NC(=O)[C@H](CO)NC(=O)[C@@H](NC(=O)[C@H](CC(=O)O)NC(=O)[C@@H](NC(=O)[C@H](CCCCN)NC(=O)[C@H](CC(=O)O)NC(=O)[C@@H](NC(=O)[C@H](Cc1ccc(O)cc1)NC(=O)[C@@H](NC(=O)[C@@H]1CCCN1C(=O)[C@@H]1CCCN1)C(C)C)[C@@H](C)O)C(C)C)[C@@H](C)CC)[C@@H](C)CC)[C@@H](C)CC)C(=O)N[C@@H](CC(C)C)C(=O)N[C@@H](CC(=O)O)C(=O)N[C@H](C(=O)N[C@H](C(=O)N[C@@H](CC(N)=O)C(=O)N1CCC[C@H]1C(=O)N[C@@H](CO)C(=O)N[C@@H](CC(C)C)C(=O)O)C(C)C)[C@@H](C)O` [HeV FC2], for which, in experiment [1], the IC50 was in the range of 5.2 to 5.8 nM and the “Inhibition of HeV-mediated fusion (in words)” value was “completely inhibitory in the nM range”. In experiment [2], the half-inhibitory concentration (IC50) is 5.2 to 5.8 nM and the “Inhibition of NiV-mediated fusion (in words)” value was “completely inhibitory in the nM range”.
